Tests used:
replicon cells = assay: Cytotoxicity MTS assay in replicon cells; format: cell-based; details: CC50, MTS assay, three days post dosing
Method: To measure cell-based anti-HCV activity of the compounds of the present invention, replicon cells (1b-Con1) are seeded at 5000 cells/well in 96-well plates one day prior to treatment with a compound of the invention. Various concentrations of a test compound of the invention in DMSO are then added to the replicon cells, with the final concentration of DMSO at 0.5% and fetal bovine serum at 10% in the assay media. Cells are harvested three days post-dosing and the replicon RNA level is determined using real-time RT-PCR (Taqman assay) with GAPDH RNA as endogenous control. EC50 values are calculated from experiments with 10 serial twofold dilutions of the inhibitor in triplicate. To measure cytotoxicity in replicon cells of an inhibitor, an MTS assay is performed according to the manufacturer's protocol for CellTiter 96 Aqueous One Solution Cell Proliferation Assay (Promega, Cat #G3580) three days post dosing on cells treated identically as in replicon activity assays. CC50 is the concentration of inhibitor that yields 50% inhibition compared to vehicle-treated cells. Cytotoxicity in other types of cells can be measured using the same MTS protocol.

[1] = Replicon activity assay (replicon RNA by real-time RT-PCR); format: cell-based, HCV; details: Hepatitis C virus, 72 h; replicon RNA level, three days post-dosing, 10% fetal bovine serum; read-out: Replicon (1a) EC50

| SMILES | Cytotoxicity (replicon cells) | EC50 [1] |
| --- | --- | --- |
| C[C@@]1(N)C2O[P@@](=O)(OC3CCC3)OC[C@H]2O[C@H]1n1ccc(=O)[nH]c1=O (stereo partly drawn) | >100 µM | > 100 µM |
| CCCC(CCC)CO[P@@]1(=O)OC[C@H]2O[C@@H](n3ccc(=O)[nH]c3=O)[C@](C)(N)[C@@H]2O1 | >100 µM | > 100 µM |
| C[C@@]1(N)[C@@H]2O[P@@](=O)(OC3CCCC3)OC[C@H]2O[C@H]1n1ccc(=O)[nH]c1=O | >100 µM | > 100 µM |
| CC(C)O[P@@]1(=O)OC[C@H]2O[C@@H](n3ccc(=O)[nH]c3=O)[C@](C)(N)C2O1 (stereo partly drawn) | >100 µM | > 100 µM |
| CCC(CC)CO[P@@]1(=O)OC[C@H]2O[C@@H](n3ccc(=O)[nH]c3=O)[C@](C)(N)[C@@H]2O1 | >100 µM | 43.2 µM |
| C[C@@]1(N)[C@@H]2O[P@@](=O)(OCc3ccccc3)OC[C@H]2O[C@H]1n1ccc(=O)[nH]c1=O | >100 µM | 56.2 µM |
